Test results reported in US7015236B2, “N-heteroarylnicotinamide derivatives” (Sankyo Agro Company, Limited, priority 2001, dated 2006).

Key:
[1] = tested on: green peach aphid (Myzus persicae); assay: Insecticidal test for green peach aphid (10 ppm and 3 ppm), Test Example 2; format: in vivo; settings: same manner as Test Example 1; for mortality at 3 ppm: Chemical concentration of spray 3 ppm; for mortality at 10 ppm: Chemical concentration of spray 10 ppm
Description: (§1) Water (30 ml) was put into a beaker, and a leaf of Komatsuna (Brassica var. rapa) was placed within the beaker such that the stem was immersed in water. On the leaf of Komatsuna, five green peach aphids were released and allowed to fertilize. Two days after the releasing, imagoes were removed and the number of larvae was counted.
(§2) A surfactant Newcol NE-710F (trademark, produced by Nippon Nyukazai Co., Ltd., 2%) was dissolved in aqueous acetone (95% aqueous solution, 98%) to prepare solution 1. Next, a dispersant Gousenol GLO5-S (trademark, produced by Nippon Nyukazai Co., Ltd., 0.2% aqueous solution, 0.2%) was dissolved in water (99.8%) to prepare solution 2.
(§3) To each of the compounds (8 mg) of the present invention, the above solution 1 (0.4 ml), the above solution 2 (0.4 ml) and water (8 ml) were added. Further, the compounds of the present invention were each diluted with water so that the concentration of each compound was 100 ppm {as a spreading agent, Gramin S (trademark, produced by Sankyo Co., Ltd.) was added so as to have a concentration of 0.01%}.
(§4) The above chemical liquid (8 ml) was sprayed on the leaf of Komatsuna by use of a rotary spraying tower. The leaf of Komatsuna was put back in the beaker. Then, the beaker was placed in a thermostatic chamber of 25° C. for 16 hours in the light and for 8 hours in the dark. 5 Days after the spraying, the number of dead insects was counted to calculate the mortality (%).
Insecticidal Test for Green Peach Aphid (Myzus persicae) (10 ppm and 3 ppm)
The test was carried out in the same manner as in Test Example 1 except for setting the dilution concentration to 10 ppm and 3 ppm. Incidentally, Comparative Compound a and Comparative Compound b (Compound No. 6) listed in Table 1 of Japanese Provisional Patent Publication No. Hei 10-195072 were used as a comparison. [drawing 25]

[2] = tested on: green peach aphid (Myzus persicae); assay: Insecticidal test for green peach aphid (100 ppm), Test Example 1; format: in vivo; settings: 120 h, 100 ppm spray on Komatsuna leaf, larvae, counted 5 days after spraying, 25° C., read-out: mortality (%)
Description: Insecticidal test for green peach aphid (Myzus persicae) (100 ppm)
as §1, §2, §3, §4

Q: `Cc1cnc(NC(=O)c2cnccc2C(F)(F)F)s1` [Comparative Compound a, reference compound] was tested. Which mortality at 3 ppm [1] did it give?
A: 0%

Q: And the mortality at 10 ppm [1]?
A: 6%

Q: For `O=C(Nc1nncs1)c1cnccc1C(F)(F)F` [Comparative Compound b, reference compound], which mortality at 3 ppm [1] is on record?
A: 0%

Q: What about the mortality at 10 ppm [1] of the same compound?
A: 0%

Q: How did the mortality at 100 ppm [2] turn out when `Cc1cc(NC(=O)c2cnccc2C(F)(F)F)on1` [Example 1, N-(3-Methyl-5-isoxazolyl)-4-(trifluoromethyl)nicotinamide] was run?
A: ≥ 95%

Q: And the mortality at 3 ppm [1]?
A: 100%

Q: And the mortality at 10 ppm [1]?
A: 100%

Q: How did the mortality at 100 ppm [2] turn out when `O=C(Nc1ccno1)c1cnccc1C(F)(F)F` [Example 4, N-(5-Isoxazolyl)-4-(trifluoromethyl)nicotinamide] was run?
A: ≥ 95%

Q: What about the mortality at 3 ppm [1] of the same compound?
A: 100%

Q: And the mortality at 10 ppm [1]?
A: 100%

Q: Which mortality at 100 ppm [2] does the source give for `Cc1ccc(-c2cnoc2NC(=O)c2cnccc2C(F)(F)F)cc1` [Example 54, N-[4-(4-Methylphenyl)-5-isoxazolyl]-4-(trifluoromethyl)nicotinamide] here?
A: ≥ 95%

Q: How did the mortality at 100 ppm [2] turn out when `COc1ccc(-c2cnoc2NC(=O)c2cnccc2C(F)(F)F)cc1` [Example 55, N-[4-(4-Methoxyphenyl)-5-isoxazolyl]-4-(trifluoromethyl)nicotinamide] was run?
A: ≥ 95%

Q: `O=C(Nc1oncc1-c1ccc(Cl)cc1)c1cnccc1C(F)(F)F` [Example 56, N-[4-(4-Chlorophenyl)-5-isoxazolyl]-4-(trifluoromethyl)nicotinamide] was tested. Which mortality at 100 ppm [2] did it give?
A: ≥ 95%

Q: For `O=C(Nc1oncc1-c1ccc(C(F)(F)F)cc1)c1cnccc1C(F)(F)F` [Example 57, N-[4-(4-Trifluoromethylphenyl)-5-isoxazolyl]-4-(trifluoromethyl)nicotinamide], which mortality at 100 ppm [2] is on record?
A: ≥ 95%

Q: For `O=C(Nc1oncc1-c1ccc(OC(F)(F)F)cc1)c1cnccc1C(F)(F)F` [Example 58, N-[4-(4-Trifluoromethoxyphenyl)-5-isoxazolyl]-4-(trifluoromethyl)nicotinamide], which mortality at 100 ppm [2] is on record?
A: ≥ 95%

Q: For `O=C(Nc1oncc1-c1cccnc1)c1cnccc1C(F)(F)F` [Example 59, N-[4-(3-Pyridyl)-5-isoxazolyl]-4-(trifluoromethyl)nicotinamide], which mortality at 100 ppm [2] is on record?
A: ≥ 95%

Q: How did the mortality at 100 ppm [2] turn out when `CON=Cc1noc(NC(=O)c2cnccc2C(F)(F)F)c1Cl` [Example 60, N-(4-Chloro-3-methoxyiminomethyl-5-isoxazolyl)-4-(trifluoromethyl)nicotinamide] was run?
A: ≥ 95%

Q: Which mortality at 100 ppm [2] does the source give for `Cc1noc(NC(=O)c2cnccc2C(F)(F)F)c1-c1ccccc1` [Example 61, N-(3-Methyl-4-phenyl-5-isoxazolyl)-4-(trifluoromethyl)nicotinamide] here?
A: ≥ 95%

Q: `O=C(Nc1oncc1C1=CCCCC1)c1cnccc1C(F)(F)F` [Example 62, N-[4-(Cyclohex-1-ene-1-yl)-5-isoxazolyl]-4-(trifluoromethyl)nicotinamide] was tested. Which mortality at 100 ppm [2] did it give?
A: ≥ 95%

Q: With `COCc1cnoc1NC(=O)c1cnccc1C(F)(F)F` [Example 63, N-(4-Methoxymethyl-5-isoxazolyl)-4-(trifluoromethyl)nicotinamide] as the compound, how does the mortality at 100 ppm [2] read?
A: ≥ 95%

Q: `O=C(Nc1oncc1-n1cccn1)c1cnccc1C(F)(F)F` [Example 64, N-[4-(1H-Pyrazol-1-yl)-5-isoxazolyl]-4-(trifluoromethyl)nicotinamide] was tested. Which mortality at 100 ppm [2] did it give?
A: ≥ 95%

Q: How did the mortality at 100 ppm [2] turn out when `O=C(Nc1oncc1C1CCCCC1)c1cnccc1C(F)(F)F` [Example 65, N-(4-Cyclohexyl-5-isoxazolyl)-4-(trifluoromethyl)nicotinamide] was run?
A: ≥ 95%

Q: How did the mortality at 100 ppm [2] turn out when `Cc1noc(NC(=O)c2cnccc2C(F)(F)F)c1F` [Example 66, N-(4-Fluoro-3-methyl-5-isoxazolyl)-4-(trifluoromethyl)nicotinamide] was run?
A: ≥ 95%
